Data from patent publication US6534077B2, “Organosiloxane containing modified groups in agricultural compositions” (Crompton Corporation, priority 2000, dated 2003).

System: Barnyardgrass (Echinochloa crus-galli)
Experiment: Effect of adjuvant on glyphosate-IPA efficacy on barnyardgrass with simulated rainfall
Type: in vivo
Conditions: 0.75 wt % glyphosate-IPA without adjuvant, rainfall 2 h after application
Protocol: Barnyardgrass (Echinochloa crus-galli) 10 cm in height were treated with 0.75 wt % (a.i.) glyphosate, isopropylamine salt (Monsanto), either alone, or plus a spray adjuvant (0.05 and 0.1 wt % respectively). The spray was applied at 100 L/ha using a T-Jet 8002E nozzle. The plants were subjected to simulated rainfall (2.5 cm), 2 h after herbicide application, to determine the rainfastening ability of the adjuvants. Plants were evaluated at week 1 and 2 weeks after treatment, by visual observation, relative to the untreated check. A score of 0 means no plant injury, while a score of 100 indicates total control (burndown, with no regrowth).

## CC(C)N.O=C(O)CNCP(=O)(O)O [glyphosate-IPA, glyphosate, isopropylamine salt]
1 week after treatment
  Percent Control 1 WAT: 7.5d %
2 weeks after treatment
  Percent Control 2 WAT: 18.75c %
